Measurements from PMC10377586 (Biomolecules, 2023).

Tests used:
rat A2A (rA2A) ARs = biological target: T1, rat A2A (rA2A) ARs (Rattus norvegicus, UniProt P30543); test: Radioligand binding [3H]MSX-2, rat brain striatal membranes; details: read-out: rA2A [3H]MSX-2 Ki ± SEM
T1 construct: rat brain striatal membrane preparations for A2A AR assays; tissue Pel Freez; host or cells: rat brain striatum membranes
Method: (§1) The final compounds were tested in radioligand binding assays to evaluate their affinity for all four ARs subtypes (see Table 2). Rat brain cortical membrane preparations were used as a source of rat A1 (rA1) ARs, and rat brain striatal membrane preparations served as a source of rat A2A (rA2A) ARs. For A2B- and A3AR assays, membrane preparations of Chinese hamster ovary (CHO) cells recombinantly expressing either human A2B (hA2B) or human A3 (hA3) ARs were employed.
(§2) Adenosine receptor radioligand binding assays were performed as previously described using rat brain cortical membrane preparations for A1 and rat brain striatal membrane preparations for A2A AR assays. Frozen rat brains (unstripped) were obtained from Pel Freez, Rogers, AR, USA. For assays at human AR subtypes, cell membranes of CHO cells recombinantly expressing the respective receptor were used. The following compounds were employed as radioligands: A1: [^3H]2-chloro-N^6-cyclopentyladenosine ([^3H]CCPA); A2A: [^3H]3-(3-hydroxypropyl)-7-methyl-8-(m-methoxystyryl)-1-propargylxanthine ([^3H]MSX-2); A2B: [^3H]8-(4-(4-(4-chlorophenyl)piperazine-1-sulfonyl)phenyl)-1-propylxanthine ([^3H]PSB-603); A3: [^3H]phenyl-8-ethyl-4-methyl-(8R)-4,5,7,8-tetrahydro-1H-imidazo[2,1-i]purine-5-one ([^3H]PSB-11). Initially, a single high concentration of compound was tested (1 µM). For potent compounds, full concentration–inhibition curves were determined using six to ten different concentrations of test compound spanning three orders of magnitude. At least three independent experiments were performed. Data were analyzed using GraphPad PRISM program version 4.0 or higher (Graph Pad, San Diego, CA, USA).

DPPH antioxidant assay = type: physicochemical; details: compound at 50 µM
From the text: The 2,2-diphenyl-1-picrylhydrazyl (DPPH) assay was used to determine the antioxidant properties of selected compounds using ascorbic acid, trolox, and quercetin as references. […] From a structural point of view, 21 and 22 share a common pyrimido[2,1-f]purinedione core with propyl or butyl substituents at the N1- and N3-position. Compounds 11i and 11l, containing hexyl or phenoxyethyl as N7-substituents, were the only structures in the groups of bicyclic xanthine derivatives that lacked antioxidant activity in the DPPH assay.
Antioxidant properties of considered structures were evaluated in DPPH test. The assay utilizes a stable free radical 2,2-diphenyl-1-picrylhydrazyl (DPPH). DPPH has a deep violet color in solution and strong absorption band at 520 nm. The antioxidant activity of the tested compounds was defined by their ability to induce the formation of the reduced form of DPPH. Upon reduction, DPPH color turned pale yellow, which manifested by decreased sample absorption at 520 nm and was measured in conducted experiments using EnSpire microplate reader (PerkinElmer). Antioxidant activity of xanthine derivatives and reference compounds was tested in triplicate at 50 µM concentration and normalized to the activity of reference radical scavenger—quercetin.
Figure 2 Antioxidant properties of xanthine derivatives evaluated in the DPPH test. All compounds were tested at 50 µM concentration. Results were normalized to the antioxidant activity measured for quercetin. ASC, ascorbic acid; TLX, trolox; QCT, quercetin.

human PDE10A1 = biological target: T2, human PDE10A1 (Homo sapiens, UniProt Q9Y233); test: PDElight HTS cAMP phosphodiesterase assay, PDE10A1; type: biochemical; details: for IC50: read-out: PDE 10A1 IC50 ± SEM; for inhibition at 10 µM: read-out: PDE 10A1 % Inhibition ± SEM at 10 µM
T2 construct: purchased BPS Biosciences
T2 sequence (Q9Y233 1-779 isoform Q9Y233-1): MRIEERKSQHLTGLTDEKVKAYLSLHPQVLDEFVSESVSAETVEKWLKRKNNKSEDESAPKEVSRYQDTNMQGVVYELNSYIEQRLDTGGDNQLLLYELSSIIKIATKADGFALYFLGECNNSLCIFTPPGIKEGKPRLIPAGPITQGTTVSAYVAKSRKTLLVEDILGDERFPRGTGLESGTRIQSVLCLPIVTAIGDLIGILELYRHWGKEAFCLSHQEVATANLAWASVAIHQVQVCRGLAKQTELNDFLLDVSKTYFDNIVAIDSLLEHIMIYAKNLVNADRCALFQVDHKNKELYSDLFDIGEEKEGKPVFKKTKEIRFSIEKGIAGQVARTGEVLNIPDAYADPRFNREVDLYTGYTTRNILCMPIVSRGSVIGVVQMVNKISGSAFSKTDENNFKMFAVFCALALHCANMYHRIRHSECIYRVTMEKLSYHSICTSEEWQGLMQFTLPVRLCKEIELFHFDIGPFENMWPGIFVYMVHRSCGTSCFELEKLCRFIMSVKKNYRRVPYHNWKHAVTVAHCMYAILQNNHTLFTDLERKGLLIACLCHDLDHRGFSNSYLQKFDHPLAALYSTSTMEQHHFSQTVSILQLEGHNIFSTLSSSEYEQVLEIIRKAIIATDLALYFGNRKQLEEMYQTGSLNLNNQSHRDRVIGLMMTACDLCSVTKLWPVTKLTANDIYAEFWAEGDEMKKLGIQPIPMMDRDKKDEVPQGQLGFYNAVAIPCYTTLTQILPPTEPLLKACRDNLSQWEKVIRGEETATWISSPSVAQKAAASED
Method: Further biological evaluation of the presented compound library was performed determining inhibitory potencies against selected human PDE isoforms, namely, PDE4 and PDE10 (for results see Table 3).
Tested and reference compounds were dissolved in dimethyl sulfoxide (DMSO) at a concentration of 10 mM and further diluted in assay buffer (10 mM Tris-HCl, 10 mM magnesium chloride and 0.05% Tween-20; pH 7.4). Inhibition of human PDE10A and 4B1 was measured using PDElight HTS cAMP phosphodiesterase assay kit (Lonza, Basel, Switzerland) according to manufacturer’s recommendations. Then, 10 ng of PDE10A and 5 ng of PDE4B1 (BPS Biosciences, San Diego, CA, USA) in appropriate buffer was incubated with reference and tested compound for 20 min. […] Then PDELight AMP Detection Reagent was added and incubated 10 min. All reactions were carried out at 37 °C in 96 white-walled, half-area-well plates (PerkinElmer). Luminescence was measured in a multifunction plate reader (POLARstar Omega, BMG Labtech, Ortenberg, Germany). The percentage of inhibition and IC50s were computed using GraphPad Prism Version 6.0 software.

human A3 (hA3) ARs = biological target: T3, human A3 (hA3) ARs (Homo sapiens, UniProt P0DMS8); test: Radioligand binding [3H]PSB-11, CHO cell membranes; details: for Ki: CHO cell membranes, read-out: hA3 [3H]PSB-11 Ki ± SEM; for inhibition at 1 µM: read-out: hA3 [3H]PSB-11 % inhibition ± SEM at 1 µM
T3 construct: expressed in transfected cells; host or cells: CHO cells (membranes)
T3 sequence (P0DMS8 1-318): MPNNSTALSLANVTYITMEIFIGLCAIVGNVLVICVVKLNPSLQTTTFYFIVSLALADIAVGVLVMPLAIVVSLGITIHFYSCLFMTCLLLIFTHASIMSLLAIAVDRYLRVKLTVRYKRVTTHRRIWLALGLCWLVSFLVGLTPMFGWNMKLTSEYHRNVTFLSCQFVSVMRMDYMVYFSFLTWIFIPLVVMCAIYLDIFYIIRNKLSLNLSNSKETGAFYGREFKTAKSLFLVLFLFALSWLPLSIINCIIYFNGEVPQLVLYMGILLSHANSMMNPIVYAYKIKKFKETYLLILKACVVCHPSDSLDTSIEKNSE
Method: as §1, §2

human MAO-B = biological target: T4, human MAO-B (Homo sapiens, UniProt P27338); test: Amplex Red monoamine oxidase assay, MAO-B; type: biochemical; details: human recombinant MAO-B; read-out: MAO-B IC50 ± SEM
T4 construct: purchased Sigma Aldrich M7441
T4 sequence (P27338 1-520): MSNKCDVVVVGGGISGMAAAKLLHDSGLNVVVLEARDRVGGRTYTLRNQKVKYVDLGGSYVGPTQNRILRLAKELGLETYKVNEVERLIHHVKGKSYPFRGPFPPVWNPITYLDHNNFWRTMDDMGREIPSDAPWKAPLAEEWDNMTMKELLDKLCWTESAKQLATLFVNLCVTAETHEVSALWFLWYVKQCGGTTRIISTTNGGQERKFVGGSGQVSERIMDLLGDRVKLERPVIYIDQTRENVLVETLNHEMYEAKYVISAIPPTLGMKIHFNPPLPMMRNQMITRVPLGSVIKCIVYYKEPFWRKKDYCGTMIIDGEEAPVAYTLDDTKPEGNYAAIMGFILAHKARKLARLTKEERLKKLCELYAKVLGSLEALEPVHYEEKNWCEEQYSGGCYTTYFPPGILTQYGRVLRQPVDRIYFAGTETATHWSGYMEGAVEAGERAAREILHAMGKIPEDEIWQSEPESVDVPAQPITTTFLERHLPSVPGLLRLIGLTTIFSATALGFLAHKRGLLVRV
Method: Inhibition activity of compounds at MAO enzyme isoforms was measured via a fluorometric method using the Amplex Red Monoamine Oxidase Assay (ThermoFisher Scientific, Waltham, MA, USA #A12214) in a 96-well plates. Human recombinant MAO-B and MAO-A enzymes (Sigma Aldrich, St. Louis, MO, USA #M7441 and #M7316) were used.

T1 sequence (P30543 whole entry): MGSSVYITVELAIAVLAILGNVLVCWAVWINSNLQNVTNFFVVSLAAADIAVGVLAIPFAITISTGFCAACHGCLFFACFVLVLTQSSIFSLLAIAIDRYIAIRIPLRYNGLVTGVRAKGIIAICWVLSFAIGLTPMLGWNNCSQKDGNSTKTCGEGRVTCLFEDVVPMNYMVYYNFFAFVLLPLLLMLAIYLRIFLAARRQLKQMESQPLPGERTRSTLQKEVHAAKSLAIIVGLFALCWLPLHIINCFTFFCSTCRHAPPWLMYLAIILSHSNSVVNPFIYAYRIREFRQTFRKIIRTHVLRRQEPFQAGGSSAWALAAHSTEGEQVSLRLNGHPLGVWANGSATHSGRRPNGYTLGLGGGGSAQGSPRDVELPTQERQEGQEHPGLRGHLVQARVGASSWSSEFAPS

SMILES	Ki (rat A2A (rA2A) ARs)	melting point	Antioxidative Activity [% of Quercetin Response at 50 µM ± SD] (DPPH antioxidant assay)	IC50 (human PDE10A1)	Ki (human A3 (hA3) ARs)	inhibition at 1 µM (human A3 (hA3) ARs)	IC50 (human MAO-B)	inhibition at 10 µM (human PDE10A1)
CCn1c(NCCc2ccc(O)c(O)c2)nc2c1c(=O)n(C)c(=O)n2C [Compound 11b, 8-((3,4-Dihydroxyphenethyl)amino)-7-ethyl-1,3-dimethyl-3,7-dihydro-1H-purine-2,6-dione]	672 ± 83 nM	225 to 226 °C	75 ± 1 % of Quercetin Response	4630 ± 1250 nM	> 1000 nM	-5%	47.9 ± 8.4 nM	–
CC(C)n1c(NCCc2ccc(O)c(O)c2)nc2c1c(=O)n(C)c(=O)n2C [Compound 11d, 8-((3,4-Dihydroxyphenethyl)amino)-7-isopropyl-1,3-dimethyl-3,7-dihydro-1H-purine-2,6-dione]	1150 ± 140 nM	180 to 182 °C	87 ± 1 % of Quercetin Response	2300 ± 640 nM	> 1000 nM	12%	126 ± 49 nM	–
CCCCCCn1c(NCCc2ccc(O)c(O)c2)nc2c1c(=O)n(C)c(=O)n2C [Compound 11i, 8-((3,4-Dihydroxyphenethyl)amino)-7-hexyl-1,3-dimethyl-3,7-dihydro-1H-purine-2,6-dione]	> 10000 nM	216 to 218 °C	26 ± 1 % of Quercetin Response	> 10000 nM	> 1000 nM	3%	76.4 ± 0.7 nM	14%
Cn1c(=O)c2c(nc(NCCc3ccc(O)c(O)c3)n2CCOc2ccccc2)n(C)c1=O [Compound 11l, 8-((3,4-Dihydroxyphenethyl)amino)-1,3-dimethyl-7-(2-phenoxyethyl)-3,7-dihydro-1H-purine-2,6-dione]	1380 ± 120 nM	218 to 220 °C	26 ± 3 % of Quercetin Response	> 10000 nM	> 1000 nM	-2%	53.5 ± 18.2 nM	17%
Cn1c(=O)c2c(nc3n2CCCN3CCc2ccc(O)c(O)c2)n(C)c1=O [Compound 20a, 9-(3,4-Dihydroxyphenethyl)-1,3-dimethyl-6,7,8,9-tetrahydropyrimido[2,1-f]purine-2,4(1H,3H)-dione]	507 ± 109 nM	213 to 215 °C	68 ± 2 % of Quercetin Response	> 10000 nM	> 1000 nM	-6%	121 ± 23 nM	35%
Cn1c(=O)c2c(nc3n2CCCCN3CCc2ccc(O)c(O)c2)n(C)c1=O [Compound 20b, 10-(3,4-Dihydroxyphenethyl)-1,3-dimethyl-7,8,9,10-tetrahydro-1H-[1, 3]diazepino[2,1-f]purine-2,4(3H,6H)-dione]	234 ± 55 nM	232 to 235 °C	79 ± 1 % of Quercetin Response	30700 ± 200 nM	> 1000 nM	-2%	101 ± 21 nM	–
